We go through eleven molecules from PubChem BioAssay AID192 (DTP/NCI, 2004).

Where “and” joins values, the source holds several entries; their conditions need not be identical. Identical values can stand only once. Inconclusive results and toxic doses are left out.

This assay relates to BDF1 mice, B16 melanoma ip, median survival T/C. Nature of the assay: NCI In Vivo Anticancer Drug Screen. Data for tumor model B16 Melanoma (intraperitoneal) in B6D2F1 (BDF1) mice. To be noted: endpoint: median survival time, higher = longer survival. The gist of the method:
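Each result divides a survival or tumor-size measurement in the compound-treated group by the same measurement in the vehicle group.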

Where [1] appears, read: dose: 25.0 mg/kg/injection, schedule: Q01DX009 (ip), vehicle: Klucel (hydroxypropylcellulose) (HPC).
The mark [2] stands for this setting: dose: 50.0 mg/kg/injection, schedule: Q01DX009 (ip), vehicle: Klucel (hydroxypropylcellulose) (HPC).
Where [3] appears, read: dose: 12.5 mg/kg/injection, schedule: Q01DX009 (ip), vehicle: gum acacia.
The mark [4] stands for this setting: dose: 50.0 mg/kg/injection, schedule: Q01DX009 (ip), vehicle: gum acacia.

As to `CN1C(=O)CN=C(c2ccccc2)c2cc(Cl)ccc21`, the T/C was 95 % of control (dose: 0.02 mg/kg/injection, schedule: Q01DX009 (ip), vehicle: Klucel (hydroxypropylcellulose) (HPC)); 100 % of control (dose: 0.03 mg/kg/injection, schedule: Q01DX009 (ip), vehicle: saline); 233 % of control (dose: 0.04 mg/kg/injection, schedule: Q01DX009 (ip), vehicle: Klucel (hydroxypropylcellulose) (HPC)); 97 % of control (dose: 0.05 mg/kg/injection, schedule: Q01DX009 (ip), vehicle: saline); 104 % of control (dose: 0.09 mg/kg/injection, schedule: Q01DX009 (ip), vehicle: Klucel (hydroxypropylcellulose) (HPC)); 91 % of control (dose: 0.1 mg/kg/injection, schedule: Q01DX009 (ip), vehicle: saline). The T/C was 109 % of control (dose: 0.19 mg/kg/injection, schedule: Q01DX009 (ip), vehicle: Klucel (hydroxypropylcellulose) (HPC)); 91 % of control and 105 % of control (dose: 0.39 mg/kg/injection, schedule: Q01DX009 (ip), vehicle: Klucel (hydroxypropylcellulose) (HPC)); 94 % of control (dose: 5.0 micrograms/kg/injection, schedule: Q01DX009 (ip), vehicle: Klucel (hydroxypropylcellulose) (HPC)); 93 % of control (dose: 10.0 micrograms/kg/injection, schedule: Q01DX009 (ip), vehicle: Klucel (hydroxypropylcellulose) (HPC)); 86 % of control (dose: 20.0 micrograms/kg/injection, schedule: Q01DX009 (ip), vehicle: Klucel (hydroxypropylcellulose) (HPC)); 94 % of control (dose: 40.0 micrograms/kg/injection, schedule: Q01DX009 (ip), vehicle: Klucel (hydroxypropylcellulose) (HPC)). The T/C (dose: 90.0 micrograms/kg/injection, schedule: Q01DX009 (ip), vehicle: Klucel (hydroxypropylcellulose) (HPC)) is 92 % of control.
For the molecule `CNCCCN1c2ccccc2CCc2ccccc21`, the T/C is, setting by setting: (dose: 3.12 mg/kg/injection, schedule: Q01DX009 (ip), vehicle: saline) 105 % of control; (dose: 6.25 mg/kg/injection, schedule: Q01DX009 (ip), vehicle: Klucel (hydroxypropylcellulose) (HPC)) 106 % of control; (dose: 6.25 mg/kg/injection, schedule: Q01DX009 (ip), vehicle: saline) 96 % of control; (dose: 12.5 mg/kg/injection, schedule: Q01DX009 (ip), vehicle: Klucel (hydroxypropylcellulose) (HPC)) 101 % of control; (dose: 12.5 mg/kg/injection, schedule: Q01DX009 (ip), vehicle: saline) 102 % of control; under setting [1], 100 % of control. The T/C is, setting by setting: (dose: 25.0 mg/kg/injection, schedule: Q01DX009 (ip), vehicle: saline) 87 % of control; under setting [2], 86 % of control; (dose: 50.0 mg/kg/injection, schedule: Q01DX009 (ip), vehicle: saline) 101 % of control.
`[Cl][Pt+2][Cl].[NH-]c1ccccc1[NH-]`: the T/C was 117 % of control (dose: 0.63 mg/kg/injection, schedule: Q01DX009 (ip), vehicle: saline with Tween-80); 100 % of control and 123 % of control (dose: 1.25 mg/kg/injection, schedule: Q01DX009 (ip), vehicle: Klucel (hydroxypropylcellulose) (HPC)); 117 % of control (dose: 1.25 mg/kg/injection, schedule: Q01DX009 (ip), vehicle: saline with Tween-80); 92 % of control (dose: 2.5 mg/kg/injection, schedule: Q01DX009 (ip), vehicle: Klucel (hydroxypropylcellulose) (HPC)); 122 % of control (dose: 2.5 mg/kg/injection, schedule: Q01DX009 (ip), vehicle: saline with Tween-80); 92 % of control (dose: 10.0 mg/kg/injection, schedule: Q01DX009 (ip), vehicle: saline with Tween-80).
As to `Brc1ccc(-c2csc(Nc3nc(-c4ccc(Br)cc4)cs3)n2)cc1`, the T/C was 105 % of control (dose: 12.5 mg/kg/injection, schedule: Q01DX009 (ip), vehicle: saline with Tween-80); 122 % of control (dose: 25.0 mg/kg/injection, schedule: Q01DX009 (ip), vehicle: saline with Tween-80); 97 % of control (dose: 25.0 mg/kg/injection, schedule: Q04DX003 (ip), vehicle: saline with Tween-80); 89 % of control and 107 % of control (dose: 50.0 mg/kg/injection, schedule: Q01DX009 (ip), vehicle: saline with Tween-80); 100 % of control (dose: 50.0 mg/kg/injection, schedule: Q04DX003 (ip), vehicle: saline with Tween-80); 86 % of control and 94 % of control (dose: 100.0 mg/kg/injection, schedule: Q04DX003 (ip), vehicle: saline with Tween-80). The T/C (dose: 200.0 mg/kg/injection, schedule: Q04DX003 (ip), vehicle: saline with Tween-80) is 86 % of control.
In the case of `CC(=O)c1c(O)c(C)c(O)c2c1OC1=CC(=O)C(C(C)=O)C(=O)C12C` (centres undefined), the T/C is, setting by setting: (dose: 5.0 mg/kg/injection, schedule: Q01DX009 (ip), vehicle: gum acacia) 107 % of control; (dose: 6.25 mg/kg/injection, schedule: Q01DX009 (ip), vehicle: gum acacia) 92 % of control; under setting [3], 108 % of control; (dose: 20.0 mg/kg/injection, schedule: Q01DX009 (ip), vehicle: gum acacia) 100 % of control; (dose: 40.0 mg/kg/injection, schedule: Q01DX009 (ip), vehicle: gum acacia) 102 % of control; under setting [4], 108 % of control. Moreover, the T/C is 105 % of control (dose: 80.0 mg/kg/injection, schedule: Q01DX009 (ip), vehicle: gum acacia) and 97 % of control (dose: 100.0 mg/kg/injection, schedule: Q01DX009 (ip), vehicle: gum acacia).
Take `CCCc1c(C)[nH]c2ccccc12`: the T/C runs as follows: (dose: 100.0 mg/kg/injection, schedule: Q04DX003 (ip), vehicle: Klucel (hydroxypropylcellulose) (HPC)) 94 % of control; (dose: 200.0 mg/kg/injection, schedule: Q04DX003 (ip), vehicle: Klucel (hydroxypropylcellulose) (HPC)) 100 % of control; (dose: 400.0 mg/kg/injection, schedule: Q04DX003 (ip), vehicle: Klucel (hydroxypropylcellulose) (HPC)) 88 % of control.
On to `C=C(C)C(=O)O[C@H]1[C@H]2[C@H](OC(=O)[C@H]2C)[C@H](O)[C@@H](C)[C@@H]2C=CC(=O)[C@]21C`, for which the T/C is 100 % of control (dose: 7.5 mg/kg/injection, schedule: Q01DX009 (ip), vehicle: saline); 98 % of control (dose: 15.0 mg/kg/injection, schedule: Q01DX009 (ip), vehicle: saline with Tween-80); 106 % of control (dose: 15.0 mg/kg/injection, schedule: Q01DX009 (ip), vehicle: saline); 114 % of control (dose: 30.0 mg/kg/injection, schedule: Q01DX009 (ip), vehicle: saline with Tween-80); 117 % of control (dose: 30.0 mg/kg/injection, schedule: Q01DX009 (ip), vehicle: saline); 119 % of control (dose: 60.0 mg/kg/injection, schedule: Q01DX009 (ip), vehicle: saline with Tween-80).
For the molecule `c1ccc(N2CCOCC2)cc1`, the T/C (dose: 100.0 mg/kg/injection, schedule: Q01DX009 (ip), vehicle: Klucel (hydroxypropylcellulose) (HPC)) was 96 % of control and the T/C (dose: 200.0 mg/kg/injection, schedule: Q01DX009 (ip), vehicle: Klucel (hydroxypropylcellulose) (HPC)) was 96 % of control.
On to `CC1CC[N-]CC1.CC1CC[N-]CC1.CC1CC[N-]CC1.CC1CC[N-]CC1.CS(C)=O.CS(C)=O.[Cl-].[Cl-].[Cl-].[Cl-].[Pt+4].[Rh+3]`, for which the T/C (dose: 0.2 mg/kg/injection, schedule: Q01DX009 (ip), vehicle: water) was 100 % of control; the T/C (dose: 0.4 mg/kg/injection, schedule: Q01DX009 (ip), vehicle: water) was 104 % of control; the T/C (dose: 0.8 mg/kg/injection, schedule: Q01DX009 (ip), vehicle: water) is 106 % of control; the T/C (dose: 1.5 mg/kg/injection, schedule: Q01DX009 (ip), vehicle: water) was 106 % of control; the T/C (dose: 3.0 mg/kg/injection, schedule: Q01DX009 (ip), vehicle: water) is 106 % of control.
For the molecule `CNc1ccc(/C=C2\C=Cc3ccccc32)cc1`, the T/C was 104 % of control under setting [3]; 109 % of control under setting [1]; 91 % of control (dose: 25.0 mg/kg/injection, schedule: Q01DX009 (ip), vehicle: gum acacia); 112 % of control under setting [2]; 102 % of control under setting [4].
Take `O=c1c(O)c(-c2ccc(O)c(O)c2)oc2cc(O)cc(O)c12`: the T/C is, setting by setting: (dose: 25.0 mg/kg/injection, schedule: Q02DX009 (ip), vehicle: saline) 89 % of control; (dose: 50.0 mg/kg/injection, schedule: Q02DX009 (ip), vehicle: saline) 88 % of control; (dose: 100.0 mg/kg/injection, schedule: Q02DX009 (ip), vehicle: saline) 93 % of control; (dose: 200.0 mg/kg/injection, schedule: Q02DX009 (ip), vehicle: saline with Tween-80) 86 % of control; (dose: 200.0 mg/kg/injection, schedule: Q02DX009 (ip), vehicle: saline) 87 % of control.
